According to patent publication US20200277571A1, “METHOD FOR AMPLIFYING CONE PHOTORECEPTORS OR ROD PHOTORECEPTORS USING DORSALIZATION SIGNAL TRANSMITTER OR VENTRALIZATION SIGNAL TRANSMITTER” (RIKEN, priority 2017, published 2020):

Assays:
ALDH1A1 gene = assay: Quantitative PCR of ALDH1A1 gene expression in retinal tissue; format: cell-based, human
Description: [1] Control group (FIG. 2a, f, k, p); according to the method described in Example 1, culture was performed up to day 70 or day 75 from the start of suspension culture and without addition. [2]+BMP group (FIG. 2b, g, 1, q); 0.15 nM BMP4 was added from day 22 from the start of suspension culture to completion of suspension culture, and cultured up to day 70 or day 75 from the start of suspension culture. [3]+Cyclopamine-KAAD group (FIG. 2c, h, m, r); 500 nM Cyclopamine-KAAD was added from day 22 from the start of suspension culture to completion of the suspension culture, and cultured up to day 70 or day 75 from the start of suspension culture. [4]+LDN193189 group (FIG. 2d, i, n, s); 100 nM LDN193189 was added from day 22 from the start of suspension culture to completion of the suspension culture, and cultured up to day 70 or day 75 from the start of suspension culture. [5]+SAG group (FIG. 2e, j, o, t); 100 nM SAG was added from day 22 from the start of suspension culture to completion of the suspension culture, and cultured up to day 70 or day 75 from the start of suspension culture.
The expression level of ALDH1A1 gene was analyzed by quantitative PCR using the same cDNA as that used in Example 7. As a result, similar to that observed by immunostaining, the expression level of ALDH1A1 gene was promoted in +BMP4 group as compared to the Control (NUC) group on about day 40 from the start of suspension culture (FIG. 8-2, black bar (d40) in graph). […]
After extracting RNA from retinal tissue prepared in this way, cDNA was synthesized and the expression level of ALDH1A1 gene was analyzed by quantitative PCR. […] Furthermore, a retinal tissue prepared using 1.35 nM BMP4 was fixed with 4% para-formaldehyde, cryosections were prepared, and immunostaining using an antibody against GFP (fluorescence of GFP variant incorporated in CRX gene locus can be identified. That is, cells similar to CRX-positive cell can be identified), ALDH1A1, or DAPI staining for staining the nucleus was performed. […]

[1] = test system: photoreceptor precursor and cone photoreceptor precursor in retinal tissue produced from human ES cells; assay: Immunostaining for CRX and TRβ2 and CRX::Venus fluorescence observation of retinal tissue, day 70-75 of suspension culture; format: cell-based

## BMP4: BMP protein; BMP signal transduction pathway agonist used as dorsalization signal transmitter
ALDH1A1 gene; 1.35 nM BMP4 from day 22, day 70-75
  ALDH1A1 gene expression: significantly increased
ALDH1A1 gene; about day 40, 0.15 nM BMP4 from day 22
  expression level of ALDH1A1 gene versus Control (NUC) group: promoted
ALDH1A1 gene; about day 70 (versus about day 40), 0.15 nM BMP4 from day 22
  ALDH1A1 gene expression: tendency of decrease
[1]; 0.45 nM BMP4 from day 22
  CRX::Venus-positive cells as compared with group added with 0.15 nM BMP4: became less
[1]; 1.35 nM BMP4 from day 22
  CRX::Venus-positive cells as compared with group added with 0.15 nM BMP4: became less
